Test results: US7579469B2, “Glucocorticoid mimetics, methods of making them, pharmaceutical compositions, and uses thereof” (Boehringer Ingelheim Pharmaceuticals, Inc., priority 2003, dated 2009)

What follows are molecules tested against T1, human glucocorticoid receptor (GR) complex (Homo sapiens, UniProt P04150) (assay: Glucocorticoid receptor competitive binding assay (fluorescence polarization)). Settings: competition with TAMRA-labeled dexamethasone.
T1 construct: made in house; host or cells: insect expression system (baculovirus lysate)
T1 sequence (P04150 1-777): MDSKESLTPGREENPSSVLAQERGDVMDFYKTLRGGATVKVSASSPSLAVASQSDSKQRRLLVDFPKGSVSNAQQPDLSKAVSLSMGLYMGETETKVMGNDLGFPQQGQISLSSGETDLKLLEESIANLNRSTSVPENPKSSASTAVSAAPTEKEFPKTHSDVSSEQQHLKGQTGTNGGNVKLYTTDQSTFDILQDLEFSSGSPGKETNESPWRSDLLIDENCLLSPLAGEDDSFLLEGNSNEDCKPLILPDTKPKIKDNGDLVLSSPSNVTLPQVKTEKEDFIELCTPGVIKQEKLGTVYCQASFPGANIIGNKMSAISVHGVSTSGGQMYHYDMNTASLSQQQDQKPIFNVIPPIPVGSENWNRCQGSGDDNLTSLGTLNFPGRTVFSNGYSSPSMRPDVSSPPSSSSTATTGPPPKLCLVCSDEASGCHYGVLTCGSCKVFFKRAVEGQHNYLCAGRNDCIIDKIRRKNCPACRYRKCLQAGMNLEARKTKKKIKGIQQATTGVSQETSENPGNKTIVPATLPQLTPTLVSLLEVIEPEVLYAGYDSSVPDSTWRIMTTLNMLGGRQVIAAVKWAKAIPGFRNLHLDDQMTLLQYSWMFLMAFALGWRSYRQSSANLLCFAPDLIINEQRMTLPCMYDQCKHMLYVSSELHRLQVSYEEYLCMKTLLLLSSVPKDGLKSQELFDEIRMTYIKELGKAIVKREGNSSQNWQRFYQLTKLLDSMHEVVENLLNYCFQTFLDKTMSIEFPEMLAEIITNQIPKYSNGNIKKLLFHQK
Outline: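 Fluorescence polarization competition against TAMRA-labelled dexamethasone (50 μL of 15 nM added) for human GR complex from baculovirus insect-cell lysate, diluted 1:170, in TES/KCl/molybdate buffer, pH 7.4.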

Activity in the GR binding assay, potent activity:
COc1ccc(-c2ccsc2)cc1C(C)(C)CC(O)(Cn1ccc(=O)c2ccccc21)C(F)(F)F (centres unmarked)
CC(C)(CC(O)(Cn1ccc(=O)c2ccccc21)C(F)(F)F)c1cccc(C2(C)OCCO2)c1 (centres unmarked) [1-{2-Hydroxy-4-methyl-4-[3-(2-methyl-[1,3]dioxolan-2-yl)phenyl]-2-trifluoromethylpentyl}-1H-quinolin-4-one]
CC(C)(CC(O)(Cn1ccc(=O)c2ccccc21)C(F)(F)F)c1cc(Br)cc2c1OCO2 (centres unmarked) [1-[4-(6-Bromobenzo[1,3]dioxol-4-yl)-2-hydroxy-4-methyl-2-trifluoromethylpentyl]-1H-quinolin-4-one]
CC(C)(CC(O)(Cn1ccc(=O)c2ccccc21)C(F)(F)F)c1cccc(C(=O)C2CC2)c1 (centres unmarked)
COc1ccc(F)cc1C(C)(C)CC(O)(Cn1cc(CO)c(=O)c2ccccc21)C(F)(F)F (centres unmarked) [1-[4-(5-Fluoro-2-methoxyphenyl)-2-hydroxy-4-methyl-2-trifluoromethylpentyl]-3-hydroxymethyl-1H-quinolin-4-one]
Cc1cn(CC(O)(CC(C)(C)c2cc(F)ccc2O)C(F)(F)F)cc(C)c1=O (centres unmarked) [1-[4-(5-Fluoro-2-hydroxyphenyl)-2-hydroxy-4-methyl-2-trifluoromethylpentyl]-3,5-dimethyl-1H-pyridin-4-one]
COc1ccc(F)cc1C(C)(C)CC(O)(CN1CCN(C(=O)c2ccco2)CC1)C(F)(F)F (centres unmarked) [{4-[4-(5-Fluoro-2-methoxyphenyl)-2-hydroxy-4-methyl-2-trifluoromethylpentyl]piperazin-1-yl}furan-2-ylmethanone]
COc1ccc(F)cc1C(C)(C)CC(O)(Cn1ccc(=O)c2ccc(F)cc21)C(F)(F)F (centres unmarked) [7-Fluoro-1-[4-(5-fluoro-2-methoxyphenyl)-2-hydroxy-4-methyl-2-trifluoromethylpentyl]-1H-quinolin-4-one]
C[S+]([O-])c1cc2c(c(C(C)(C)CC(O)(Cn3ccc(=O)c4ccccc43)C(F)(F)F)c1)OCC2 (centres unmarked) [1-[2-Hydroxy-4-(5-methanesulfinyl-2,3-dihydrobenzofuran-7-yl)-4-methyl-2-trifluoromethylpentyl]-1H-quinolin-4-one]
CC(C)(CC(O)(Cn1ccc(=O)c2ccc(Cl)cc21)C(F)(F)F)c1cc(F)ccc1O (centres unmarked) [7-Chloro-1-[4-(5-fluoro-2-hydroxyphenyl)-2-hydroxy-4-methyl-2-trifluoromethylpentyl]-1H-quinolin-4-one]
COc1ccc(-c2ccoc2)cc1C(C)(C)CC(O)(Cn1ccc(=O)c2ccccc21)C(F)(F)F (centres unmarked) [1-[4-(5-Furan-3-yl-2-methoxyphenyl)-2-hydroxy-4-methyl-2-trifluoromethylpentyl]-1H-quinolin-4-one]
CCOc1ccc(F)cc1C(C)(C)CC(O)(Cn1ccc(=O)c2ccccc21)C(F)(F)F (centres unmarked) [1-[4-(2-Ethoxy-5-fluorophenyl)-2-hydroxy-4-methyl-2-trifluoromethylpentyl]-1H-quinolin-4-one]
COc1ccc(F)cc1C(C)(C)CC(O)(CN1CCNc2ccccc21)C(F)(F)F (centres unmarked) [2-(3,4-Dihydro-2H-quinoxalin-1-ylmethyl)-1,1,1-trifluoro-4-(5-fluoro-2-methoxyphenyl)-4-methylpentan-2-ol]
COc1ccc(C2OCCCO2)cc1C(C)(C)CC(O)(Cn1ccc(=O)c2ccccc21)C(F)(F)F (centres unmarked) [1-[4-(5-[1,3]Dioxan-2-yl-2-methoxyphenyl)-2-hydroxy-4-methyl-2-trifluoromethylpentyl]-1H-quinolin-4-one]
